Results on one compound are retold here after PubChem BioAssay AID504605 (National Center for Advancing Translational Sciences (NCATS), 2011).

The data set relates to mouse liver microsomes, LC-MS/MS, half-life. Briefly: Inhibitors of 12-hLO: Mouse Liver Microsome Stability Profiling. Particulars: at 1 µM; active compounds read high. From the text: Assay Provider: Holman, T.R., University of California, Santa Cruz Grant #: MH08128301 Screening Center PI: Austin, C.P. Screening Center: NIH Chemical Genomics Center [NCGC] Human lipoxygenase 12hLO is a member of the closely related lipoxygenase family of enzymes which catalyze the site-specific oxidation of arachidonic acid to various hormone precursor molecules and as such is a candidate for drug development in a variety of disease areas, such as cancer and inflammation. After qHTS, hits were confirmed in follow-up assays, and leads were optimized through SAR. The resulting lead compound was further characterized through a battery ADME-Tox experiments. These assay and this assay describes its mouse liver microsome stability. Mouse liver microsomes are created through broken up endoplasmic reticulum from mouse liver. These liver microsomes contain many drug metabolizing enzymes, such as Cytochome P-450s and flavin-containing monooxygenases. Because metabolism is major way of drug clearance, this is an important result.
1uM of compound in incubated in mouse liver microsome; the reference compound is ketanserin. Compounds are incubated at 37 degrees C for different time periods: 0, 5, 15, 30, 45, and 60 minutes. Samples are analyzed with LC-MS/MS.
In general terms: Liver microsomes are a subcellular fraction often used to study metabolism.

The half-life is the time in which the quantity being followed falls by half.

Regarding `CC(=O)NC(c1cccs1)c1cc(Br)c2cccnc2c1O` (stereo unspecified), the half-life is 9 min.
